Test results from patent US5093496A, “Spiro-isoquinoline-pyrrolidines and analogs thereof useful as aldose reductase inhibitors” (American Home Products Corporation, priority 1991, dated 1992).
Where two headings read alike, the source gives them in different places.

Experiments:
aldose reductase = biological target: T1, aldose reductase (Bos taurus, UniProt P16116); test: in vitro aldose reductase inhibition (modified Hayman and Kinoshita procedure, enzyme from bovine lens); assay type: biochemical; conditions: for inhibition at 0.04 µM: 4 × 10^-8 M; for inhibition at 1 µM / inhibition at 0.1 µM: read-out: % inhibition In Vitro
T1 construct: preparation of the enzyme from bovine lens; from tissue; host or cells: bovine lens
Method: Only two minor reagent changes were made: (a) the rinsing mixture was an aqueous 5% (w/v) trichloroacetic acid solution and (b) the stock solution was prepared by dissolving 25 mg of dulcitol in 100 ml of an aqueous trichloroacetic acid solution. [N.B.: For each experiment the average value found in the tissue from rats fed the glucose diet was subtracted from the individual values found in the corresponding tissue in galactose-fed rats to obtain the amount of polyol accumulated.] […] In the present case the procedure of Hayman and Kinoshita was modified in that the final chromatography step was omitted in the preparation of the enzyme from bovine lens.

Galactitol Accumulation = test: lowering of galactitol (dulcitol) accumulation in tissues of galactosemic rats; assay type: in vivo, rat (Sprague-Dawley); conditions: four days, vs untreated galactosemic rats; for % Lowering Galactitol Accumulation In Vivo, D: diaphragm
Description: The aldose reductase inhibiting property of the compounds of this invention and the utilization of the compounds in preventing, diminishing and alleviating diabetic complications are demonstrable in experiments using galactosemic rats, see Dvornik et al., Science, 182, 1146 (1973). Such experiments are exemplified hereinbelow after the listing of the following general comments pertaining to these experiments:
(a) Four or more groups of six male rats, 50-70 g, Sprague-Dawley strain, were used. The first group, the control group, was fed a mixture of laboratory chow (rodent Laboratory Chow, Purina) and glucose at 20% (w/w %) concentration. An untreated galactosemic group was fed a similar diet in which galactose was substituted for glucose. The third group was fed a diet prepared by mixing a given amount of the test compound with the galactose containing diet. The concentration of galactose in the diet of the treated groups was the same as that for the untreated galactosemic group.
(b) After four days, the animals were killed by euthanization. Both the lens and sciatic nerve were removed, weighed and stored frozen for polyol determination.
(c) The polyol determination was performed by a modification of the procedure of M. Kraml and L. Cosyns, Clin. Biochem., 2, 373 (1969). Only two minor reagent changes were made: (a) the rinsing mixture was an aqueous 5% (w/v) trichloroacetic acid solution and (b) the stock solution was prepared by dissolving 25 mg of dulcitol in 100 ml of an aqueous trichloroacetic acid solution. [N.B.: For each experiment the average value found in the tissue from rats fed the glucose diet was subtracted from the individual values found in the corresponding tissue in galactose-fed rats to obtain the amount of polyol accumulated.] The aldose reductase inhibiting effects of the compounds of formula (I) were also tested by employing an in vitro testing procedure similar to that described by S. Hayman and J. H. Kinoshita, J. Biol. Chem., 240, 877 (1965). In the present case the procedure of Hayman and Kinoshita was modified in that the final chromatography step was omitted in the preparation of the enzyme from bovine lens.
The figures under L, N, and D represent the percentage decrease of dulcitol accumulation in the tissues of the lens, sciatic nerve, and diaphragm, respectively, for treated rats as compared to untreated rats.

O=C1CC2(C(=O)N1)C(=O)N(Cc1nc3cc(C(F)(F)F)ccc3s1)C(=O)c1ccccc12 (centres unmarked) [R^1=H, R^3=CF3, 2-[[5-(Trifluoromethyl)-2-benzothiazolyl]methyl]spiro[isoquinoline-4-(1H),3'-pyrrolidine]-1,2',3,5'(2H)-tetrone]
inhibition at 0.04 µM (aldose reductase): 90%
inhibition at 1 µM (aldose reductase; 10^-6 M): 95%
inhibition at 0.1 µM (aldose reductase): 93%
% Lowering Galactitol Accumulation In Vivo, D (Galactitol Accumulation; 0.5 mg/kg/day in diet): 94%
% Lowering Galactitol Accumulation In Vivo, D (Galactitol Accumulation; 1.1 mg/kg/day in diet): 89%
% Lowering Galactitol Accumulation In Vivo, L (Galactitol Accumulation; lens, 1.1 mg/kg/day in diet): 22%

O=C1CC2(C(=O)N1)C(=O)N(Cc1nc3ccccc3s1)C(=O)c1ccc(F)cc12 (centres unmarked) [R^1=F, R^3=H, 2-(2-Benzothiazolylmethyl)-6-fluorospiro[isoquinoline-4(1H),3'-pyrrolidine]-1,2',3,5'(2H)-tetrone]
inhibition at 0.04 µM (aldose reductase): 91%
inhibition at 0.1 µM (aldose reductase): 94%
inhibition at 1 µM (aldose reductase): 96%
% Lowering Galactitol Accumulation In Vivo, D (Galactitol Accumulation; 4.6 mg/kg/day in diet): 93%

O=C1CC2(C(=O)N1)C(=O)N(Cc1nc3ccccc3s1)C(=O)c1ccccc12 (centres unmarked) [R^1=H, R^3=H, 2-(2-Benzothiazolylmethyl)spiro[isoquinoline-4(1H),3'-pyrrolidine)-1,2',3,5'(2H)-tetrone]
inhibition at 0.04 µM (aldose reductase): 81%
inhibition at 1 µM (aldose reductase; 10^-6 M): 97%
inhibition at 0.1 µM (aldose reductase; 10^-7 M): 92%

O=C1CC2(C(=O)N1)C(=O)N(Cc1nc3cc(C(F)(F)F)ccc3s1)C(=O)c1ccc(F)cc12 (centres unmarked) [R^1=F, R^3=CF3, 6-Fluoro-2-[[5-(trifluoromethyl)-2-benzothiazolyl]methyl]spiro-[isoquinoline-4(1H),3'-pyrrolidine]-1,2',3,5'(2H)-tetrone]
inhibition at 0.04 µM (aldose reductase): 92%
inhibition at 1 µM (aldose reductase; 10^-6 M): 95%
inhibition at 0.1 µM (aldose reductase): 94%
% Lowering Galactitol Accumulation In Vivo, D (Galactitol Accumulation; 1.0 mg/kg/day in diet): 85%
